# Legend:
# IkBa-24pp (SEQ ID NO: 1) = molecular target: T1, IkBa-24pp (SEQ ID NO: 1) (Homo sapiens, UniProt P25963); experiment: Single-well 4-spot assay for multiple peptide-protein interactions; format: binding; conditions: for ECL signal, spot 1 IkBa-24pp: 4-spot plate
# T1 construct: two phosphoserines in the DSGLDS motif (chemical modification); purchased New England Peptide, Fitchburg Mass; host or cells: chemical synthesis
# Excerpt: (§1) Four phosphopeptides and their cognate binding proteins (Table 14) were selected for an integrated assay of multiple peptide-protein interaction in 4-spot Multi-Array plates. The IkBa-24pp peptide and its binding protein, βTRCP, are described in Example 10. The remaining peptides are derived from the carboxyl terminus of the EGF receptor. These phosphotyrosine containing peptides are recognized by different adaptor or effecter proteins of the receptor tyrosine kinase signaling pathway.
# These four peptides were coupled to BSA carrier protein through cystine residue. After purification on PD-10 gel filtration columns, the peptide-BSA conjugates were then deposited on the assay domains of a 4-spot multi-array IPR plate (i.e., in one of the four exposed regions of working electrode defined by the dielectric layer) with an automated micro-dispensing system (Bio-Dot Dispenser, Bio-Dot, Irvine Calif.). Typically about 120 fmole of peptide:BSA conjugate in 0.25 μl was deposited on each spot of a 4-spot multi-array IPR plate. These plates are dried then used or stored under desiccated conditions. A few hours prior to usage the plates were rehydrated and blocked with 3% BSA in PBS. EST clones encoding βTRCP1 (3491843), βTRCP2 (4237375), mCBP (3872466) Grb2 (4398016) and PLCγ (4419252) (Incyte, Palo Alto, Calif.), were isolated using a QIA-prep column (QIAGEN, Los Angeles, Calif.) and used to program protein expression in a Quick coupled SP6 TnT reaction supplemented with Transcend biotin-tRNA label following the manufactures protocol (Promega, Madison Wis.). The in vitro translated and biotin-labeled proteins were then assayed in the 4-spot multi-array IPR plates under conditions described in Example 10. […] By contrast spots 2–4 in the same wells gave low ECL signals. Thus, in this assay format, each peptide not only serves as the capture agent for assaying specific interaction with its binding protein, but also at the same time serves as a control for other peptide-protein interaction to be determined in the same well. […]
# [1] = molecular target: T2, EGFR-pY1148 (SEQ ID NO: 9) (Homo sapiens, UniProt P00533); experiment: as above; format: binding; conditions: 4-spot plate
# T2 construct: phosphotyrosine at Tyr1148 (chemical modification); purchased New England Peptide, Fitchburg Mass; host or cells: chemical synthesis
# Excerpt: as §1, with “The remaining peptides are derived from the carboxyl terminus of the EGF receptor.” left out
# (§2) These four peptides were coupled to BSA carrier protein through cystine residue. After purification on PD-10 gel filtration columns, the peptide-BSA conjugates were then deposited on the assay domains of a 4-spot multi-array IPR plate (i.e., in one of the four exposed regions of working electrode defined by the dielectric layer) with an automated micro-dispensing system (Bio-Dot Dispenser, Bio-Dot, Irvine Calif.). […] These plates are dried then used or stored under desiccated conditions. A few hours prior to usage the plates were rehydrated and blocked with 3% BSA in PBS. […] The in vitro translated and biotin-labeled proteins were then assayed in the 4-spot multi-array IPR plates under conditions described in Example 10.
# [2] = molecular target: T3, EGFR-pY1068 (SEQ ID NO: 7) (Homo sapiens, UniProt P00533); experiment: as above; format: binding; conditions: 4-spot plate
# T3 construct: phosphotyrosine at Tyr1068 (chemical modification); purchased New England Peptide, Fitchburg Mass; host or cells: chemical synthesis
# Excerpt: as §1, with “The remaining peptides are derived from the carboxyl terminus of the EGF receptor.” left out
# as §2
# [3] = test system: pooled phosphopeptide:BSA conjugates (Pools A-D); experiment: Coded multiplex phosphopeptide binding assay with pooled peptide:BSA conjugates on 4 spots; conditions: for ECL signal, spot A: Pool A, EGFR-pTyr1148, IkBa-24ppC, Myc-p58Tp62S; for ECL signal, spot B: Pool B, EGFR-pTyr992, EGFR-pTyr1148, Smad3C; for ECL signal, spot C: Pool C, EGFR-pTyr1068, IkBa-24ppC, Smad3C; for ECL signal, spot D: Pool D, EGFR-pTyr992, EGFR-pTyr1068, Myc-p58Tp62S
# Excerpt: To prepare the Multi-Spot IPR plates, in this example we made use of pools of the peptide:BSA conjugates to coat each of 4 spots per well in a 96 well plate. To achieve this we made the following pools; • Pool A; EGFR-pTyr1148, IkBa-24ppC, Myc-p58Tp62S. • Pool B; EGFR-pTyr992, EGFR-pTyr1148, Smad3C. • Pool C; EGFR-pTyr1068, IkBa-24ppC, Smad3C. • Pool D; EGFR-pTyr992, EGFR-pTyr1068, Myc-p58Tp62S.
# This combination of the various peptides results in any single peptide being present in two pools. Each of these four pools is then spotted on to a unique spot in a 4 spot array. In this way any single binding protein with specificity for only one of the peptides would bind to two spots; the identity of the two spots would allow the identification of the peptide involved in the binding reaction.
# Typically approximately 120 fmole of peptide:BSA conjugate in 0.25 μl was deposited on each spot of a 4-spot multi-array IPR plates using a BioDot Dispenser (Bio-Dot Inc., vIrvine Calif.). At this stage, the plates were dried then used or stored under desiccated condition. A few hours prior to usage, the plates were rehydrated and blocked with 3% BSA, in PBS.
# To test the system the following EST clones IMAGE # 3491843, 4237375, 4398016, 4419252, 3872466, 3907115 were obtained. These clones express the following genes βTRCP1, βTRCP2, Grb2, PLCγ, CBP and Shc1, respectively. […] These DNAs were used to produce proteins as described in the Materials and Methods. Proteins were transferred to a well of the 4 spot peptide-coated and BSA blocked ECL plates. The binding assay (using Sulfo-TAG labeled streptavidin as a detection agent) was carried our according to the procedures described in Example 11.
# [4] = molecular target: T4, EGFR-pY992 (SEQ ID NO: 5) (Homo sapiens, UniProt P00533); experiment: Single-well 4-spot assay for multiple peptide-protein interactions; format: binding; conditions: 4-spot plate
# T4 construct: phosphotyrosine at Tyr992 (chemical modification); purchased New England Peptide, Fitchburg Mass; host or cells: chemical synthesis
# Excerpt: as §1, with “The remaining peptides are derived from the carboxyl terminus of the EGF receptor.” left out
# as §2
# T1 sequence (P25963 with tags, fused parts or gaps limits assumed): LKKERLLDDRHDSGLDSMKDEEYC
"ECL signal, spot 1 IkBa-24pp (IkBa-24pp (SEQ ID NO: 1))",fold higher ECL signal from spot 1 than with TnT mixtures containing no exogenous DNA (IkBa-24pp (SEQ ID NO: 1); spot 1 (IkBa-24pp-BSA conjugate)),"ECL signal, spot 2 EGFR-pY1148 [1]","ECL signal, spot 3 EGFR-pY1068 [2]",Code (pattern of positive spots) [3],Peptide determined from code [3],"ECL signal, spot A [3]","ECL signal, spot B [3]","ECL signal, spot C [3]","ECL signal, spot D [3]","ECL signal, spot 4 EGFR-pY992 [4]",Substance
2466,100 fold,36,24,"A, C",IkBa-24ppC,9536,208,11184,171,,3491843: IMAGE clone protein: βTRCP1 [compound 3491843]
446,,278,126,Neg.,Negative,19,30,22,15,498,3872466: IMAGE clone protein: mCBP [compound 3872466]

# — US7063946B2, “Methods, reagents, kits and apparatus for protein function analysis” (Meso Scale Technologies, LLC., priority 2001, dated 2006)
